# In the kinase profiling compilation of Christmann-Franck et al. (2016):
# How the values were obtained:
# Assay in all cases: KINOMEscan competition binding
# Settings in all cases: compound 10.0 µM
# AAK1 (human) = AAK1 (human) (UniProt Q2M2I8)
# [1] = system: ABL1 (human), P00519 [M351T]
# BRAF (human) = BRAF (human) (UniProt P15056)
# [2] = system: BRAF (human), P15056 [V600E]
# BRSK1 (human) = BRSK1 (human) (UniProt Q8TDC3)
# BRSK2 (human) = BRSK2 (human) (UniProt Q8IWQ3)
# CAMK2B (human) = CAMK2B (human) (UniProt Q13554)
# CDC42BPA (human) = CDC42BPA (human) (UniProt Q5VT25)
# CDK16 (human) = CDK16 (human) (UniProt Q00536)
# CDK8 (human) = CDK8 (human) (UniProt P49336)
# CDKL2 (human) = CDKL2 (human) (UniProt Q92772)
# CLK4 (human) = CLK4 (human) (UniProt Q9HAZ1)
# CSNK1G3 (human) = CSNK1G3 (human) (UniProt Q9Y6M4)
# ERBB2 (human) = ERBB2 (human) (UniProt P04626)
# FGFR1 (human) = FGFR1 (human) (UniProt P11362)
# GSK3A (human) = GSK3A (human) (UniProt P49840)
# GSK3B (human) = GSK3B (human) (UniProt P49841)
# [3] = system: KIT (human), P10721 [D816V]
# MAP2K4 (human) = MAP2K4 (human) (UniProt P45985)
# MAP3K11 (human) = MAP3K11 (human) (UniProt Q16584)
# MAP3K12 (human) = MAP3K12 (human) (UniProt Q12852)
# MAP3K6 (human) = MAP3K6 (human) (UniProt O95382)
# MAPK6 (human) = MAPK6 (human) (UniProt Q16659)
# MARK3 (human) = MARK3 (human) (UniProt P27448)
# MAST1 (human) = MAST1 (human) (UniProt Q9Y2H9)
# MST1R (human) = MST1R (human) (UniProt Q04912)
# NEK9 (human) = NEK9 (human) (UniProt Q8TD19)
# PAK4 (human) = PAK4 (human) (UniProt O96013)
# [4] = system: PIK3CA (human), P42336 [E545K]
# PKN2 (human) = PKN2 (human) (UniProt Q16513)
# PLK1 (human) = PLK1 (human) (UniProt P53350)
# PLK4 (human) = PLK4 (human) (UniProt O00444)
# PTK2 (human) = PTK2 (human) (UniProt Q05397)
# RIPK4 (human) = RIPK4 (human) (UniProt P57078)
# ROS1 (human) = ROS1 (human) (UniProt P08922)
# SRPK1 (human) = SRPK1 (human) (UniProt Q96SB4)
# STK35 (human) = STK35 (human) (UniProt Q8TDR2)
# STK38L (human) = STK38L (human) (UniProt Q9Y2H1)
# TIE1 (human) = TIE1 (human) (UniProt P35590)
# TTK (human) = TTK (human) (UniProt P33981)
# TXK (human) = TXK (human) (UniProt P42681)
# YSK4 (human) = YSK4 (human) (UniProt Q56UN5)
# ROS1 (human), sequence (P08922 whole entry, looked up): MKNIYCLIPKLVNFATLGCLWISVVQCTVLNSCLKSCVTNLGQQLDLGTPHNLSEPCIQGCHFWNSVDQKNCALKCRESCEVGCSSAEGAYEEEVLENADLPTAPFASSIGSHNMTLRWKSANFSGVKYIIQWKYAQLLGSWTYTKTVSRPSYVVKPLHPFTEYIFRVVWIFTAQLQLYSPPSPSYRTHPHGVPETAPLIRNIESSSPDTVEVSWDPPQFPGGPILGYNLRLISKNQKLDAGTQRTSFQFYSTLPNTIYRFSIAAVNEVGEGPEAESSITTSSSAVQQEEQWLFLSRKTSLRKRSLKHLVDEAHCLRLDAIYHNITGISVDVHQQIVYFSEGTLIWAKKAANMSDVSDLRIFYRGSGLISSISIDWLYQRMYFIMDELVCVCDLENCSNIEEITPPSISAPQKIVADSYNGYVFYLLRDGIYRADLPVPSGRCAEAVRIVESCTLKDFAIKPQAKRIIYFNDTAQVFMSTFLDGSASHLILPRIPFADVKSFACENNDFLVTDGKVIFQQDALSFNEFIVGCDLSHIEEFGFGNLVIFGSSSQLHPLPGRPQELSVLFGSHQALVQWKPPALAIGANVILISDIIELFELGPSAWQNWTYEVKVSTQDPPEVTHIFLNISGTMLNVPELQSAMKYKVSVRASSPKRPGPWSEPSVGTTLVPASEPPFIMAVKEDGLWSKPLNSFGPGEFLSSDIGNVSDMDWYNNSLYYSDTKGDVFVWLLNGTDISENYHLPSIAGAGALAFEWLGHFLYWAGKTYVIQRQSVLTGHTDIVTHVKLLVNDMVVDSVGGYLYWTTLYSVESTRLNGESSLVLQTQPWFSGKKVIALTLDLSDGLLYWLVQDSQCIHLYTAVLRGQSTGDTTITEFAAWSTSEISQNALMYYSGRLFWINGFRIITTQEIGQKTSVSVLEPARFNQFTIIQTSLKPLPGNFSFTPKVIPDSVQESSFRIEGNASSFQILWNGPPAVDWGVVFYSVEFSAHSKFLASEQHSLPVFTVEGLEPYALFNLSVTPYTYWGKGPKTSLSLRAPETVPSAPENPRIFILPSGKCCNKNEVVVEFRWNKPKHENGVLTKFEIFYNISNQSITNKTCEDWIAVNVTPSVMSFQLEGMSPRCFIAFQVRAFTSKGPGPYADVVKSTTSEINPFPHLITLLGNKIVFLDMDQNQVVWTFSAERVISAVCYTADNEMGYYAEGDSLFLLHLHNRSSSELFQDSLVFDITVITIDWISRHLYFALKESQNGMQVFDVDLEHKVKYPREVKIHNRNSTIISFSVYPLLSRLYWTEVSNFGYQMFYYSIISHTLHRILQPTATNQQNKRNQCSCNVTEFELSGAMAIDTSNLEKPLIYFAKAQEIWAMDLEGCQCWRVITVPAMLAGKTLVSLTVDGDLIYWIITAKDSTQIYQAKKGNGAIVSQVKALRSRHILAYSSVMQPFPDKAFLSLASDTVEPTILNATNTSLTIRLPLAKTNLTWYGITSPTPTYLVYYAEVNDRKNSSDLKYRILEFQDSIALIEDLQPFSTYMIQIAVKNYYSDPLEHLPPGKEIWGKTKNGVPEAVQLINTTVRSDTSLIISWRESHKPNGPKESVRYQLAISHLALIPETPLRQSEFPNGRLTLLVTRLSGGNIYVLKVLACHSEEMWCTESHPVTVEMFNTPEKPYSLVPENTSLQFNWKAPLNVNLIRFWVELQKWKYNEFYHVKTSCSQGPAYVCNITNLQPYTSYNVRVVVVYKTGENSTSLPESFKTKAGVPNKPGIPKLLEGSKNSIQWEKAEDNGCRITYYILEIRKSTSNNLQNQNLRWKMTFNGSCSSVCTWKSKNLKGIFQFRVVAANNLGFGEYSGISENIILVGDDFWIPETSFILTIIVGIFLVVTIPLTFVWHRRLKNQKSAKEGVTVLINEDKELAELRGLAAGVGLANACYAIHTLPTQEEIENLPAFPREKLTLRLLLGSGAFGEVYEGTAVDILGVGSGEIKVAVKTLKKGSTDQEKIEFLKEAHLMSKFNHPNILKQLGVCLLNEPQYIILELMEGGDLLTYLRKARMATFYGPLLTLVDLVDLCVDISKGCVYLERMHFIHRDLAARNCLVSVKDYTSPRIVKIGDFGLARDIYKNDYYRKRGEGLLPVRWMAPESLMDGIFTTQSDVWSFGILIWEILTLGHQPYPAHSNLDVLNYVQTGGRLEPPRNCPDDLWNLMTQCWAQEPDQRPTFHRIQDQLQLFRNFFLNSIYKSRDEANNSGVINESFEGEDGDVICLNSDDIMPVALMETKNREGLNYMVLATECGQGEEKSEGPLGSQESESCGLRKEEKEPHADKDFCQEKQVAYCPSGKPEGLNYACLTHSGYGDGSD
# CDKL2 (human), sequence (Q92772 whole entry, looked up): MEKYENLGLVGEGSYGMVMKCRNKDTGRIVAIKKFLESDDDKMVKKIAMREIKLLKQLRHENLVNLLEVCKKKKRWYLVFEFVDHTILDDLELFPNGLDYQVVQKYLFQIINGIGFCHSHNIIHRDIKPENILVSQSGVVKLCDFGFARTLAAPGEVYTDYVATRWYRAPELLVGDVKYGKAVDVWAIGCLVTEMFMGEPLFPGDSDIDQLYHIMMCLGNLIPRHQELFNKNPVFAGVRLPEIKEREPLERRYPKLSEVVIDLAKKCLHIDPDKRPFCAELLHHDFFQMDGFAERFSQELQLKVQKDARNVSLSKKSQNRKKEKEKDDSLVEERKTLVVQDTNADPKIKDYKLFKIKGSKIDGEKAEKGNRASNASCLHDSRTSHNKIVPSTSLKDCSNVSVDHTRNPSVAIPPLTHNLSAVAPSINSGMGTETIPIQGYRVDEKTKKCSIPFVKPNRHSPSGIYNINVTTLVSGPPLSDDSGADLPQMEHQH
# BRSK2 (human), sequence (Q8IWQ3 whole entry, looked up): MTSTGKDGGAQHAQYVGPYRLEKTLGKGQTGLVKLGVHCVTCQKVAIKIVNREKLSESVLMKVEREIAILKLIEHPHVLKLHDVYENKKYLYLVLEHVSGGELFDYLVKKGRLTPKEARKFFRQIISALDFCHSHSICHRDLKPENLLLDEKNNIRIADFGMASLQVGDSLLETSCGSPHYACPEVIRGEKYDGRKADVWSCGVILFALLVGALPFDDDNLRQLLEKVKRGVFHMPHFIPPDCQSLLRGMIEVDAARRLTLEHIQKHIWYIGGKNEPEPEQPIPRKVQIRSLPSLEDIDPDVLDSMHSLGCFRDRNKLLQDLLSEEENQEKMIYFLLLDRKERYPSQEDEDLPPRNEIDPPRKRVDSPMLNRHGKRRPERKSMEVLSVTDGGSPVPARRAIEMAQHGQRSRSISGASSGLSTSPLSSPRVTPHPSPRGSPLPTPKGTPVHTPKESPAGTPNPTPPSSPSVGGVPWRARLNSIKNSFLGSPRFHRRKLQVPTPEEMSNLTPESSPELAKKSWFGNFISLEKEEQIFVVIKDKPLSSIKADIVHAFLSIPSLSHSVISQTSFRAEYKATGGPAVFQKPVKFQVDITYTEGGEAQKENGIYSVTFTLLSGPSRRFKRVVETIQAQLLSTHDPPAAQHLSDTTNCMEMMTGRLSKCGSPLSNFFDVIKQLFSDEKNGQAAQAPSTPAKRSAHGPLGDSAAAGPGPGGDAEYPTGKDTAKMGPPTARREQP
# CLK4 (human), sequence (Q9HAZ1 whole entry, looked up): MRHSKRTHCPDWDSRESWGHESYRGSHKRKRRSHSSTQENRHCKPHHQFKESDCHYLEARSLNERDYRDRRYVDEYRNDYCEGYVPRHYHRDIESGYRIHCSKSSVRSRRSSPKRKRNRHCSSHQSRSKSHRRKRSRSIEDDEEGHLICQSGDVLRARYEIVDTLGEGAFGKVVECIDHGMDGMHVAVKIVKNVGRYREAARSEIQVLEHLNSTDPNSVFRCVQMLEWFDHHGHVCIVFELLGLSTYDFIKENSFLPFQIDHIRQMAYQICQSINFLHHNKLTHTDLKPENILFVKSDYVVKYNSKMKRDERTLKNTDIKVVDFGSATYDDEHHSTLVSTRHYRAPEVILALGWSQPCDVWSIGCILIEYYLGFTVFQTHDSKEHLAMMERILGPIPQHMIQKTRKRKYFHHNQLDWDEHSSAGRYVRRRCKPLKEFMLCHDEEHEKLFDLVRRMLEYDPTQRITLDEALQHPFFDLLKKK
# MAPK6 (human), sequence (Q16659 whole entry, looked up): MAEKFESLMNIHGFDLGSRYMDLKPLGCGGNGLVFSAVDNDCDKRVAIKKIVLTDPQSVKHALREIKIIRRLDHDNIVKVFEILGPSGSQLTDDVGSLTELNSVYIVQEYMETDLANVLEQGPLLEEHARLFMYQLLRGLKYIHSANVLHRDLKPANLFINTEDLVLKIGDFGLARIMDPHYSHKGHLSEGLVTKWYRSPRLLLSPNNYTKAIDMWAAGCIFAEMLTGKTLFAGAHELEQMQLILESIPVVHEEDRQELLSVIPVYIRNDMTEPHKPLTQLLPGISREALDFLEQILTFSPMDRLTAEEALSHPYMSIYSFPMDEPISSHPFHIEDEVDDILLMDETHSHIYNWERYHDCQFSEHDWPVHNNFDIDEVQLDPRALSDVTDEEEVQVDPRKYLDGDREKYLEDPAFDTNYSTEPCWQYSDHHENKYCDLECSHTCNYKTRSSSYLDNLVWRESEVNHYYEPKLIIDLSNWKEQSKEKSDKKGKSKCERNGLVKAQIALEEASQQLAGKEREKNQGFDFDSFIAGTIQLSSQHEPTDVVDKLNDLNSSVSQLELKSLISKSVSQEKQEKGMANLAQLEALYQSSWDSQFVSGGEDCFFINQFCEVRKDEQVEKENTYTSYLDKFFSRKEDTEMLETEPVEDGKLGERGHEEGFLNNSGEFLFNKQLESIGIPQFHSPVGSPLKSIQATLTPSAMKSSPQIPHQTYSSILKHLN
smiles,measurement,setting,value
COc1ccc(CNC(=O)Nc2ncc([N+](=O)[O-])s2)cc1,"kinase still bound, per cent of control",AAK1 (human),100%
same,"kinase still bound, per cent of control",[1],63%
same,"kinase still bound, per cent of control",BRAF (human),57%
same,"kinase still bound, per cent of control",[2],49%
same,"kinase still bound, per cent of control",BRSK1 (human),100%
same,"kinase still bound, per cent of control",BRSK2 (human),100%
same,"kinase still bound, per cent of control",CAMK2B (human),100%
same,"kinase still bound, per cent of control",CDC42BPA (human),100%
same,"kinase still bound, per cent of control",CDK16 (human),15%
same,"kinase still bound, per cent of control",CDK8 (human),100%
same,"kinase still bound, per cent of control",CDKL2 (human),40%
same,"kinase still bound, per cent of control",CLK4 (human),87%
same,"kinase still bound, per cent of control",CSNK1G3 (human),59%
same,"kinase still bound, per cent of control",ERBB2 (human),95%
same,"kinase still bound, per cent of control",FGFR1 (human),100%
same,"kinase still bound, per cent of control",GSK3A (human),0.1%
same,"kinase still bound, per cent of control",GSK3B (human),11%
same,"kinase still bound, per cent of control",[3],100%
same,"kinase still bound, per cent of control",MAP2K4 (human),79%
same,"kinase still bound, per cent of control",MAP3K11 (human),100%
same,"kinase still bound, per cent of control",MAP3K12 (human),80%
same,"kinase still bound, per cent of control",MAP3K6 (human),85%
same,"kinase still bound, per cent of control",MAPK6 (human),100%
same,"kinase still bound, per cent of control",MARK3 (human),100%
same,"kinase still bound, per cent of control",MAST1 (human),98%
same,"kinase still bound, per cent of control",MST1R (human),100%
same,"kinase still bound, per cent of control",NEK9 (human),100%
same,"kinase still bound, per cent of control",PAK4 (human),74%
same,"kinase still bound, per cent of control",[4],100%
same,"kinase still bound, per cent of control",PKN2 (human),78%
same,"kinase still bound, per cent of control",PLK1 (human),100%
same,"kinase still bound, per cent of control",PLK4 (human),99%
same,"kinase still bound, per cent of control",PTK2 (human),91%
same,"kinase still bound, per cent of control",RIPK4 (human),100%
same,"kinase still bound, per cent of control",ROS1 (human),100%
same,"kinase still bound, per cent of control",SRPK1 (human),100%
same,"kinase still bound, per cent of control",STK35 (human),87%
same,"kinase still bound, per cent of control",STK38L (human),100%
same,"kinase still bound, per cent of control",TIE1 (human),100%
same,"kinase still bound, per cent of control",TTK (human),100%
same,"kinase still bound, per cent of control",TXK (human),100%
same,"kinase still bound, per cent of control",YSK4 (human),49%
Cc1cnc(-c2cnc(NCCNc3ccc(C#N)cn3)nc2-c2ccc(Cl)cc2Cl)[nH]1,"kinase still bound, per cent of control",AAK1 (human),100%
same,"kinase still bound, per cent of control",[1],99%
same,"kinase still bound, per cent of control",BRAF (human),50%
same,"kinase still bound, per cent of control",[2],49%
same,"kinase still bound, per cent of control",BRSK1 (human),100%
same,"kinase still bound, per cent of control",BRSK2 (human),97%
same,"kinase still bound, per cent of control",CDC42BPA (human),100%
same,"kinase still bound, per cent of control",CDK16 (human),39%
same,"kinase still bound, per cent of control",CDK8 (human),100%
same,"kinase still bound, per cent of control",CDKL2 (human),3.8%
same,"kinase still bound, per cent of control",CLK4 (human),62%
same,"kinase still bound, per cent of control",CSNK1G3 (human),56%
same,"kinase still bound, per cent of control",ERBB2 (human),100%
same,"kinase still bound, per cent of control",FGFR1 (human),100%
same,"kinase still bound, per cent of control",GSK3A (human),0%
same,"kinase still bound, per cent of control",GSK3B (human),1%
same,"kinase still bound, per cent of control",[3],100%
same,"kinase still bound, per cent of control",MAP2K4 (human),70%
same,"kinase still bound, per cent of control",MAP3K11 (human),54%
same,"kinase still bound, per cent of control",MAP3K12 (human),100%
same,"kinase still bound, per cent of control",MAP3K6 (human),80%
same,"kinase still bound, per cent of control",MAPK6 (human),100%
same,"kinase still bound, per cent of control",MARK3 (human),100%
same,"kinase still bound, per cent of control",MAST1 (human),79%
same,"kinase still bound, per cent of control",MST1R (human),100%
same,"kinase still bound, per cent of control",NEK9 (human),100%
same,"kinase still bound, per cent of control",PAK4 (human),100%
same,"kinase still bound, per cent of control",[4],100%
same,"kinase still bound, per cent of control",PLK1 (human),5.4%
same,"kinase still bound, per cent of control",PLK4 (human),69%
same,"kinase still bound, per cent of control",PTK2 (human),96%
same,"kinase still bound, per cent of control",RIPK4 (human),100%
same,"kinase still bound, per cent of control",ROS1 (human),100%
same,"kinase still bound, per cent of control",SRPK1 (human),100%
same,"kinase still bound, per cent of control",STK35 (human),100%
same,"kinase still bound, per cent of control",STK38L (human),100%
same,"kinase still bound, per cent of control",TIE1 (human),100%
same,"kinase still bound, per cent of control",TTK (human),86%
same,"kinase still bound, per cent of control",TXK (human),100%
same,"kinase still bound, per cent of control",YSK4 (human),30%
Cn1cc(C2=C(c3ccc(Cl)cc3Cl)C(=O)NC2=O)c2ccccc21,"kinase still bound, per cent of control",AAK1 (human),26%
same,"kinase still bound, per cent of control",[1],82%
same,"kinase still bound, per cent of control",BRAF (human),80%
same,"kinase still bound, per cent of control",[2],78%
same,"kinase still bound, per cent of control",BRSK1 (human),90%
same,"kinase still bound, per cent of control",BRSK2 (human),85%
same,"kinase still bound, per cent of control",CAMK2B (human),55%
same,"kinase still bound, per cent of control",CDC42BPA (human),100%
same,"kinase still bound, per cent of control",CDK16 (human),0.2%
same,"kinase still bound, per cent of control",CDK8 (human),100%
same,"kinase still bound, per cent of control",CDKL2 (human),87%
same,"kinase still bound, per cent of control",CLK4 (human),7.8%
same,"kinase still bound, per cent of control",CSNK1G3 (human),69%
same,"kinase still bound, per cent of control",ERBB2 (human),100%
same,"kinase still bound, per cent of control",FGFR1 (human),100%
same,"kinase still bound, per cent of control",GSK3A (human),0%
same,"kinase still bound, per cent of control",GSK3B (human),2%
same,"kinase still bound, per cent of control",[3],89%
same,"kinase still bound, per cent of control",MAP2K4 (human),82%
same,"kinase still bound, per cent of control",MAP3K11 (human),100%
same,"kinase still bound, per cent of control",MAP3K12 (human),90%
same,"kinase still bound, per cent of control",MAP3K6 (human),64%
same,"kinase still bound, per cent of control",MAPK6 (human),100%
same,"kinase still bound, per cent of control",MARK3 (human),86%
same,"kinase still bound, per cent of control",MAST1 (human),82%
same,"kinase still bound, per cent of control",MST1R (human),100%
same,"kinase still bound, per cent of control",NEK9 (human),100%
same,"kinase still bound, per cent of control",PAK4 (human),82%
same,"kinase still bound, per cent of control",[4],100%
same,"kinase still bound, per cent of control",PKN2 (human),100%
same,"kinase still bound, per cent of control",PLK1 (human),85%
same,"kinase still bound, per cent of control",PLK4 (human),14%
same,"kinase still bound, per cent of control",PTK2 (human),84%
same,"kinase still bound, per cent of control",RIPK4 (human),100%
same,"kinase still bound, per cent of control",ROS1 (human),100%
same,"kinase still bound, per cent of control",SRPK1 (human),89%
same,"kinase still bound, per cent of control",STK35 (human),94%
same,"kinase still bound, per cent of control",STK38L (human),100%
same,"kinase still bound, per cent of control",TIE1 (human),99%
same,"kinase still bound, per cent of control",TTK (human),83%
same,"kinase still bound, per cent of control",TXK (human),100%
same,"kinase still bound, per cent of control",YSK4 (human),12%
